Source: patent EP1984353B1, “AURORA KINASE MODULATORS AND METHOD OF USE” (Amgen, Inc, priority 2006, dated 2007)
Read-outs that look alike come from different tables or passages of the source.

Legend:
AuroraA-TPX2 = molecular target: T1, AuroraA-TPX2 (Homo sapiens, UniProt O14965); test: AuroraA-TPX2 Homogeneous Time Resolved Fluorescent (HTRF) kinase assay; type: biochemical; settings: average, read-out: AurA/TP X2_ IC50_IP (Avg)
T1 construct: 20 µL of AuroraA-TPX2 KD GST; GST
T1 sequence (O14965 133-383 limits assumed): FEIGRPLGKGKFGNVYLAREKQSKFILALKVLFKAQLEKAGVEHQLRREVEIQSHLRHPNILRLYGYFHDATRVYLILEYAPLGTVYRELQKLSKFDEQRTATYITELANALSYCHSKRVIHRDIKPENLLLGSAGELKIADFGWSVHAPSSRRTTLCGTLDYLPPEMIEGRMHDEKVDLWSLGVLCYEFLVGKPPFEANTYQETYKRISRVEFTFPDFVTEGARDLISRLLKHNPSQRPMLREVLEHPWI
T1 sequence (Q9ULW0 1-43 partner limits assumed): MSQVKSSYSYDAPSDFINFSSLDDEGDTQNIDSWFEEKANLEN
Summary of the method: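 Aurora-A/TPX2 phosphorylates biotinylated PLK peptide (about 1 µM) with ATP for about 120 min in 60 mM HEPES pH 7.5, 10 mM MgCl2, 2 mM DTT. EDTA quench, overnight equilibration with Eu-anti-phosphoPLK antibody and SA-APC; HTRF read at 615/655 nm after 320 nm excitation.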

AuroraB = molecular target: T2, AuroraB (Homo sapiens, UniProt Q96GD4); test: AuroraB Homogeneous Time Resolved Fluorescent (HTRF) kinase assay; type: biochemical; settings: average, read-out: AurB_ _IC50_IP (Avg)
T2 construct: 20 µL of AuroraB FL His; His
Summary of the method: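 Full-length His-tagged AuroraB (400 pM) phosphorylates 0.1 µM biotinylated Histone H3 with 23 µM ATP (Km(app)) in HEPES pH 7.5 with Mg/Mn, about 90 min. EDTA-quenched; Eu-anti-phosphoHistoneH3 and SA-APC HTRF, 655/615 nm ratio as phosphorylation.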

[1] = given as numbers, unit inferred

T2 sequence (Q96GD4 whole entry): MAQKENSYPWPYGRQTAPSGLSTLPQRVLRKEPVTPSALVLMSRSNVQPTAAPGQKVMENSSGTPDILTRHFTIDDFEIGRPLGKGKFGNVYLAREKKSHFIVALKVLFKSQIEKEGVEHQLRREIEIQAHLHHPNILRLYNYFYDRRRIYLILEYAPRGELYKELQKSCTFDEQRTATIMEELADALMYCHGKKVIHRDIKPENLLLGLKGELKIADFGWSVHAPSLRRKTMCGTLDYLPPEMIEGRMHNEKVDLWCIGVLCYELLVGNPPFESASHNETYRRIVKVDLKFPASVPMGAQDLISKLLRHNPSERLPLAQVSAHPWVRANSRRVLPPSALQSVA

SMILES	IC50 (AuroraA-TPX2; given as class symbols)	IC50 (AuroraB; given as class symbols)	IC50 (AuroraA-TPX2; [1])	IC50 (AuroraB; [1])
Nc1nccc(-c2cccnc2Oc2ccc(Nc3nnc(N4CCNCC4)c4ccccc34)cc2)n1 [compound 393, N-(4-((3-(2-amino-4-pyrimidinyl)-2-pyridinyl)oxy)phenyl)-4-(1-piperazinyl)-1-phthalazinamine]	500 to 2500 nM	100 to 500 nM		
Nc1nccc(-c2cccnc2Oc2ccc(Nc3nnc(N4CCN5CCCC5C4)c4ccccc34)cc2)n1 (stereo not drawn) [compound 394, N-(4-((3-(2-amino-4-pyrimidinyl)-2-pyridinyl)oxy)phenyl)-4-(hexahydropyrrolo[1,2-a]pyrazin-2(1H)-yl)-1-phthalazinamine]	≤ 100 nM	≤ 100 nM		
CC1CN(c2nnc(Nc3ccc(Oc4ncccc4-c4ccnc(N)n4)cc3)c3ccccc23)CCN1C (stereo not drawn) [compound 395, N-(4-((3-(2-amino-4-pyrimidinyl)-2-pyridinyl)oxy)phenyl)-4-(3,4-dimethyl-1-piperazinyl)-1-phthalazinamine]	≤ 100 nM	≤ 100 nM		
Cc1ccc(-c2nnc(Nc3ccc(Oc4ncccc4-c4ccnc(N)n4)cc3)c3ccccc23)nc1 [compound 396, N-(4-((3-(2-amino-4-pyrimidinyl)-2-pyridinyl)oxy)phenyl)-4-(5-methyl-2-pyridinyl)-1-phthalazinamine]			4.7 nM	0.8 nM
Nc1nccc(-c2cccnc2Oc2ccc(Nc3nnc(N4CCN5CCCC5C4)c4ccccc34)cn2)n1 (stereo not drawn) [compound 397, N-(6-((3-(2-amino-4-pyrimidinyl)-2-pyridinyl)oxy)-3-pyridinyl)-4-(hexahydropyrrolo[1,2-a]pyrazin-2(1H)-yl)-1-phthalazinamine]	≤ 100 nM	≤ 100 nM		
C[C@@H]1CN(c2nnc(Nc3ccc(Oc4ncccc4-c4ccnc(N)n4)cc3)c3ccccc23)CCN1 [compound 399, N-(4-((3-(2-amino-4-pyrimidinyl)-2-pyridinyl)oxy)phenyl)-4-((3R)-3-methyl-1-piperazinyl)-1-phthalazinamine]	500 to 2500 nM	100 to 500 nM		
Fc1cnc(NCCCN2CCNCC2)nc1-c1cccnc1Oc1ccc(Nc2nnc(-c3ccccc3)c3ccccc23)cc1 [compound 400, N-(4-((3-(5-fluoro-2-((3-(1-piperazinyl)propyl)amino)-4-pyrimidinyl)-2-pyridinyl)oxy)phenyl)-4-phenyl-1-phthalazinamine]	100 to 500 nM	≤ 100 nM		
Nc1nccc(-c2cccnc2Oc2ccc(Nc3nnc(N4CCN5CCC[C@H]5C4)c4ccccc34)cc2)n1 [compound 401, N-(4-((3-(2-amino-4-pyrimidinyl)-2-pyridinyl)oxy)phenyl)-4-((8aS)-hexahydropyrrolo[1,2-a]pyrazin-2(1H)-yl)-1-phthalazinamine]	≤ 100 nM	≤ 100 nM		
Nc1nccc(-c2cccnc2Oc2ccc(Nc3nnc(N4CCN5CCC[C@H]5C4)c4ccccc34)cn2)n1 [compound 402, N-(6-((3-(2-amino-4-pyrimidinyl)-2-pyridinyl)oxy)-3-pyridinyl)-4-((8aS)-hexahydropyrrolo[1,2-a]pyrazin-2(1H)-yl)-1-phthalazinamine]	≤ 100 nM	≤ 100 nM		
Fc1cnc(NCCCN2CCCCC2)nc1-c1cccnc1Oc1ccc(Nc2nnc(-c3ccccc3)c3ccccc23)cc1 [compound 403, N-(4-((3-(5-fluoro-2-((3-(1-piperidinyl)propyl)amino)-4-pyrimidinyl)-2-pyridinyl)oxy)phenyl)-4-phenyl-1-phthalazinamine]	≤ 100 nM	≤ 100 nM		
Cc1ccnc(-c2nnc(Nc3ccc(Oc4ncccc4-c4ccnc(N)n4)cc3)c3ccccc23)c1 [compound 404, N-(4-((3-(2-amino-4-pyrimidinyl)-2-pyridinyl)oxy)phenyl)-4-(4-methyl-2-pyridinyl)-1-phthalazinamine]	100 to 500 nM	≤ 100 nM		
Cc1ccnc(-c2nnc(Nc3ccc(Oc4ncccc4-c4ccnc(N)n4)nc3)c3ccccc23)c1 [compound 405, N-(6-((3-(2-amino-4-pyrimidinyl)-2-pyridinyl)oxy)-3-pyridinyl)-4-(4-methyl-2-pyridinyl)-1-phthalazinamine]	100 to 500 nM	≤ 100 nM		
Nc1nccc(-c2cccnc2Oc2ccc(Nc3nnc(N4CCN5CCCCC5C4)c4ccccc34)cc2)n1 (stereo not drawn) [compound 406, N-(4-((3-(2-amino-4-pyrimidinyl)-2-pyridinyl)oxy)phenyl)-4-(octahydro-2H-pyrido[1,2-a]pyrazin-2-yl)-1-phthalazinamine]	≤ 100 nM	≤ 100 nM		
Cc1ccnn1-c1nnc(Nc2ccc(Oc3ncccc3-c3ccnc(N)n3)cc2)c2ccccc12 [compound 407, N-(4-((3-(2-amino-4-pyrimidinyl)-2-pyridinyl)oxy)phenyl)-4-(5-methyl-1H-pyrazol-1-yl)-1-phthalazinamine]	≤ 100 nM	≤ 100 nM		
Cc1ccn(-c2nnc(Nc3ccc(Oc4ncccc4-c4ccnc(N)n4)cc3)c3ccccc23)n1 [compound 408, N-(4-((3-(2-amino-4-pyrimidinyl)-2-pyridinyl)oxy)phenyl)-4-(3-methyl-1H-pyrazol-1-yl)-1-phthalazinamine]	≤ 100 nM	≤ 100 nM		
Cc1ccnc(-c2nnc(Nc3ccc(Oc4ncccc4-c4ccnc(NCCCN5CCN(C)CC5)n4)cc3)c3ccccc23)c1 [compound 409, N-(4-((3-(2-((3-(4-methyl-1-piperazinyl)propyl)amino)-4-pyrimidinyl)-2-pyridinyl)oxy)phenyl)-4-(4-methyl-2-pyridinyl)-1-phthalazinamine]	100 to 500 nM	≤ 100 nM		
COc1cccc(-c2nnc(Nc3ccc(Oc4ncccc4-c4ccnc(NCCCN5CCN(C)CC5)n4)cc3)c3ccccc23)n1 [compound 410, 4-(6-(methyloxy)-2-pyridinyl)-N-(4-((3-(2-((3-(4-methyl-1-piperazinyl)propyl)amino)-4-pyrimidinyl)-2-pyridinyl)oxy)phenyl)-1-phthalazinamine]	≤ 100 nM	≤ 100 nM		
C[C@H]1CN(CCCNc2nccc(-c3cccnc3Oc3ccc(Nc4nnc(-c5ccccc5)c5ccccc45)cc3)n2)CCN1 [compound 411, N-(4-((3-(2-((3-((3S)-3-methyl-1-piperazinyl)propyl)amino)-4-pyrimidinyl)-2-pyridinyl)oxy)phenyl)-4-phenyl-1-phthalazinamine]	≤ 100 nM	≤ 100 nM		
Cc1ccnc(-c2nnc(Nc3ccc(Oc4ncccc4-c4ccnc(NCCCN5CCOCC5)n4)cc3)c3ccccc23)c1 [compound 412, 4-(4-methyl-2-pyridinyl)-N-(4-((3-(2-((3-(4-morpholinyl)propyl)amino)-4-pyrimidinyl)-2-pyridinyl)oxy)phenyl)-1-phthalazinamine]	100 to 500 nM	≤ 100 nM		
CCc1cc(-c2ccccc2)nnc1Nc1ccc(Oc2ncccc2-c2ccnc(NCCCN3CCN(C)CC3)n2)nc1 [compound 449, 4-ethyl-N-(6-((3-(2-((3-(4-methyl-1-piperazinyl)propyl)amino)-4-pyrimidinyl)-2-pyridinyl)oxy)-3-pyridinyl)-6-phenyl-3-pyridazinamine]	≤ 100 nM	≤ 100 nM		
CCc1cc(-c2ccccc2)nnc1Nc1ccc(Oc2ncccc2-c2ccnc(NCCCN3CCCCC3)n2)nc1 [compound 450, 4-ethyl-6-phenyl-N-(6-((3-(2-((3-(1-piperidinyl)propyl)amino)-4-pyrimidinyl)-2-pyridinyl)oxy)-3-pyridinyl)-3-pyridazinamine]	500 to 2500 nM	≤ 100 nM		
